Test [1] has as its target norepinephrine transporter (Mus musculus). In words: In vitro inhibition of accumulation of (-)-[3H]Norepinephrine (NA) in mouse brain slices.
Test [2] addresses serotonin transporter (Mus musculus). Put plainly: In vitro inhibition of accumulation of [14C]5-HT (5-HT) in mouse brain slices.

This is an account of results in BindingDB's records for doi:10.1021/jm00144a025 (1982).

As a reminder, the pIC50 is the IC50 on a negative log10 scale, so that one unit is a factor of ten.

pIC50: −log10 of the molar value. Some results are limits rather than exact numbers.

For `CN(C)C/C=C(/c1ccc(C(F)(F)F)cc1)c1cccnc1` [cis -Dimethyl-[3-pyridin-3-yl-3-(4-trifluoromethyl-phenyl)-allyl]-amine;C2H4O4], the pIC50 in test [1] was 4.89; in test [2] it was 5.70.
As for `CN(C)C/C=C(/c1ccc(I)cc1)c1cccnc1` [cis-[3-(4-Iodo-phenyl)-3-pyridin-3-yl-allyl]-dimethyl-amine;C2H4O4], the figures for the negative-log IC50 (pIC50) in test [1] and in test [2] were below 4.66 and 6.00, respectively.
On the same counts, the results for `CCCNC/C=C(/c1ccc(Br)cc1)c1cccnc1` [cis-[3-(4-Bromo-phenyl)-3-pyridin-3-yl-allyl]-propyl-amine;C2H4O4] are below 4.62 and 4.62.
Regarding `CC(C)Oc1ccc(/C(=C/CN(C)C)c2ccncc2)cc1` [cis-[3-(4-Isopropoxy-phenyl)-3-pyridin-4-yl-allyl]-dimethyl-amine;C2H4O4], the pIC50 in test [1] is 4.47; in test [2], 5.46.
The matching figures for `Cc1ccc(/C(=C/CN(C)C)c2cccnc2)cc1` [cis -Dimethyl-(3-pyridin-3-yl-3-p-tolyl-allyl)-amine;C2H4O4]: below 4.54 and 5.62.
On the same counts, the results for `CCNC/C=C(/c1ccc(Br)cc1)c1cccnc1` [cis-[3-(4-Bromo-phenyl)-3-pyridin-3-yl-allyl]-ethyl-amine;C2H4O4] are 4.59 and 5.70.
The matching figures for `CN(C)C/C=C(\c1cccnc1)c1ccccc1Br` [cis-[3-(2-Bromo-phenyl)-3-pyridin-3-yl-allyl]-dimethyl-amine;C2H4O4]: 5.66 and 5.38.
For `CN(C)C/C=C(\c1cccnc1)c1cccc(Cl)c1` [cis-[3-(3-Chloro-phenyl)-3-pyridin-3-yl-allyl]-dimethyl-amine;C2H4O4], the pIC50 in test [1] is 4.96; in test [2] it was 5.59.
For the compound `COc1ccc(/C(=C/CN(C)C)c2cccnc2)cc1` [cis-[3-(4-Methoxy-phenyl)-3-pyridin-3-yl-allyl]-dimethyl-amine;C2H4O4], the pIC50 in test [1] is below 4.55; in test [2], 6.10.
As to `CN(C)C/C=C(\c1cccnc1)c1cccc(F)c1` [cis-[3-(3-Fluoro-phenyl)-3-pyridin-3-yl-allyl]-dimethyl-amine;C2H4O4], the pIC50 in test [1] was 5.66; in test [2] it was 5.80.
On the same counts, the results for `CNC/C=C(\c1cccnc1)c1cccc(Br)c1` [cis-[3-(3-Bromo-phenyl)-3-pyridin-3-yl-allyl]-methyl-amine;C2H4O4] are 6.05 and 5.85.
On the same counts, the results for `CN(C)C/C=C(/c1ccccc1)c1cccnc1` [cis -Dimethyl-(3-phenyl-3-pyridin-3-yl-allyl)-amine;1.5C2H4O4] are 4.57 and 5.43.
The matching figures for `CN(C)C/C=C(/c1ccc(Cl)cc1)c1cccnc1` [cis-[3-(4-Chloro-phenyl)-3-pyridin-3-yl-allyl]-dimethyl-amine;C2H4O4]: 5.00 and 5.68.
`CNC/C=C(\c1cccnc1)c1ccccc1Br` [cis-[3-(2-Bromo-phenyl)-3-pyridin-3-yl-allyl]-methyl-amine;C2H4O4]: the figures for the pIC50 in test [1] and in test [2] were 6.52 and 6.22, respectively.
On the same counts, the results for `CNC/C=C(\c1cccnc1)c1ccc(Cl)cc1Cl` [cis-[3-(2,4-Dichloro-phenyl)-3-pyridin-3-yl-allyl]-methyl-amine;C2H4O4] are 5.64 and 6.30.
